Source: US20250388593A1 (MITSUBISHI TANABE PHARMA CORPORATION, priority 2023, published 2025)

Molecular target: CRBN truncate (318-426) (Homo sapiens (Human), UniProt Q96SW2)
Assay: Measurement of molecular interactions using surface plasmon resonance (SPR), Biacore T200
Format: binding
Settings: 25° C., immobilized CRBN truncate, upper limit of measurement 200 μM
How it was run: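 C-terminally Avi-tagged CRBN (318-426) captured on a streptavidin SA chip on a Biacore T200. Running buffer 10 mM HEPES pH 7.5, 150 mM NaCl, 1 mM TCEP, 0.005% Tween 20, 2% DMSO; 60 s contact, 120 s dissociation.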

Sequence of CRBN truncate (318-426) (Q96SW2 318-426): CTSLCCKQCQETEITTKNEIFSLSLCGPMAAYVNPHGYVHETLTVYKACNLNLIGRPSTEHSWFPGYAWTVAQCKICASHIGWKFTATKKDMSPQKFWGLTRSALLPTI

| SMILES | Kd [µM] |
| --- | --- |
| Cc1sc2c(c1C)C(c1ccc(Cl)cc1)=N[C@@H](CC(=O)NCCCCCCCCN1CC3(CC(=O)N(C4CCC(=O)NC4=O)C3=O)C1)c1nnc(C)n1-2 (stereo partly drawn) [Example 309, 2-[(9S)-7-(4-chlorophenyl)-4,5,13-trimethyl-3-thia-1,8,11,12-tetraazatricyclo[8.3.0.02,6]trideca-2(6),4,7,10,12-pentaen-9-yl]-N-[8-[6-(2,6-dioxopiperidin-3-yl)-5,7-dioxo-2,6-diazaspiro[3.4]octan-2-yl]octyl]acetamide] | ≥ 100 |
| Cc1sc2c(c1C)C(c1ccc(Cl)cc1)=N[C@@H](CC(=O)NCCCCCCCc1cn(C3CCCC(=O)NC3=O)nn1)c1nnc(C)n1-2 (stereo partly drawn) [Example 310, 2-[(9S)-7-(4-chlorophenyl)-4,5,13-trimethyl-3-thia-1,8,11,12-tetraazatricyclo[8.3.0.02,6]trideca-2(6),4,7,10,12-pentaen-9-yl]-N-[7-[1-(2,7-dioxoazepan-3-yl)triazol-4-yl]heptyl]acetamide] | ≥ 100 |
| Cc1sc2c(c1C)C(c1ccc(Cl)cc1)=N[C@@H](CC(=O)NCCCCCCc1ccc(S(=O)(=O)N(C)C3CCCC(=O)NC3=O)cc1)c1nnc(C)n1-2 (stereo partly drawn) [Example 311, 2-[(9S)-7-(4-chlorophenyl)-4,5,13-trimethyl-3-thia-1,8,11,12-tetraazatricyclo[8.3.0.02,6]trideca-2(6),4,7,10,12-pentaen-9-yl]-N-[6-[4-[(2,7-dioxoazepan-3-yl)-methylsulfamoyl]phenyl]hexyl]acetamide] | < 50 |
| Cc1sc2c(c1C)C(c1ccc(Cl)cc1)=N[C@@H](CC(=O)NCCCCCCCNc1ccc3nc(N4CCCC(=O)NC4=O)sc3c1)c1nnc(C)n1-2 [Example 312, 2-[(9S)-7-(4-chlorophenyl)-4,5,13-trimethyl-3-thia-1,8,11,12-tetraazatricyclo[8.3.0.02,6]trideca-2(6),4,7,10,12-pentaen-9-yl]-N-[7-[[2-(2,4-dioxo-1,3-diazepan-1-yl)-1,3-benzothiazol-6-yl]amino]heptyl]acetamide] | < 50 |
| Cc1sc2c(c1C)C(c1ccc(Cl)cc1)=N[C@@H](CC(=O)NCCCCCCCNc1ccc(N3CCC(N4CCCC(=O)NC4=O)C3=O)cc1)c1nnc(C)n1-2 (stereo partly drawn) [Example 313, 2-[(9S)-7-(4-chlorophenyl)-4,5,13-trimethyl-3-thia-1,8,11,12-tetraazatricyclo[8.3.0.02,6]trideca-2(6),4,7,10,12-pentaen-9-yl]-N-[7-[4-[3-(2,4-dioxo-1,3-diazepan-1-yl)-2-oxopyrrolidin-1-yl]anilino]heptyl]acetamide] | < 50 |
| Cc1sc2c(c1C)C(c1ccc(Cl)cc1)=N[C@@H](CC(=O)NCCCCCCCNc1ccc(N3CCC4(CCCC(=O)NC4=O)CC3=O)cc1)c1nnc(C)n1-2 (stereo partly drawn) [Example 314, 2-[(9S)-7-(4-chlorophenyl)-4,5,13-trimethyl-3-thia-1,8,11,12-tetraazatricyclo[8.3.0.02,6]trideca-2(6),4,7,10,12-pentaen-9-yl]-N-[7-[4-(4,7,9-trioxo-3,8-diazaspiro[5.6]dodecan-3-yl)anilino]heptyl]acetamide] | < 50 |
| Cc1sc2c(c1C)C(c1ccc(Cl)cc1)=N[C@@H](CC(=O)NCCCNc1nccc(N3CC4(CC(=O)N(C5CCC(=O)NC5=O)C4=O)C3)n1)c1nnc(C)n1-2 (stereo partly drawn) [Example 315, 2-[(9S)-7-(4-chlorophenyl)-4,5,13-trimethyl-3-thia-1,8,11,12-tetraazatricyclo[8.3.0.02,6]trideca-2(6),4,7,10,12-pentaen-9-yl]-N-[3-[[4-[6-(2,6-dioxopiperidin-3-yl)-5,7-dioxo-2,6-diazaspiro[3.4]octan-2-yl]pyrimidin-2-yl]amino]propyl]acetamide] | < 50 |
| Cc1sc2c(c1C)C(c1ccc(Cl)cc1)=N[C@@H](CC(=O)NCCCCCCc1ccc(-c3cn(C4CCCC(=O)NC4=O)nn3)cc1)c1nnc(C)n1-2 (stereo partly drawn) [Example 316, 2-[(9S)-7-(4-chlorophenyl)-4,5,13-trimethyl-3-thia-1,8,11,12-tetraazatricyclo[8.3.0.02,6]trideca-2(6),4,7,10,12-pentaen-9-yl]-N-[6-[4-[1-(2,7-dioxoazepan-3-yl)triazol-4-yl]phenyl]hexyl]acetamide] | < 50 |
| Cc1sc2c(c1C)C(c1ccc(Cl)cc1)=N[C@@H](CC(=O)NCCc1ccc(S(=O)(=O)N3CC4(CC(=O)N(C5CCC(=O)NC5=O)C4=O)C3)cc1)c1nnc(C)n1-2 (stereo partly drawn) [Example 317, 2-[(9S)-7-(4-chlorophenyl)-4,5,13-trimethyl-3-thia-1,8,11,12-tetraazatricyclo[8.3.0.02,6]trideca-2(6),4,7,10,12-pentaen-9-yl]-N-[2-[4-[[6-(2,6-dioxopiperidin-3-yl)-5,7-dioxo-2,6-diazaspiro[3.4]octan-2-yl]sulfonyl]phenyl]ethyl]acetamide] | < 50 |
| Cc1sc2c(c1C)C(c1ccc(Cl)cc1)=N[C@@H](CC(=O)NCCCCCCCCn1ccc3c(N4CC5(CC(=O)N(C6CCC(=O)NC6=O)C5=O)C4)ncnc31)c1nnc(C)n1-2 (stereo partly drawn) [Example 318, 2-[(9S)-7-(4-chlorophenyl)-4,5,13-trimethyl-3-thia-1,8,11,12-tetraazatricyclo[8.3.0.02,6]trideca-2(6),4,7,10,12-pentaen-9-yl]-N-[8-[4-[6-(2,6-dioxopiperidin-3-yl)-5,7-dioxo-2,6-diazaspiro[3.4]octan-2-yl]pyrrolo[2,3-d]pyrimidin-7-yl]octyl]acetamide] | < 50 |
| Cc1sc2c(c1C)C(c1ccc(Cl)cc1)=N[C@@H](CC(=O)NCCCCCCCCn1ccc3c(N4CCC5(CCCC(=O)NC5=O)C4)ncnc31)c1nnc(C)n1-2 (stereo partly drawn) [Example 319, 2-[(9S)-7-(4-chlorophenyl)-4,5,13-trimethyl-3-thia-1,8,11,12-tetraazatricyclo[8.3.0.02,6]trideca-2(6),4,7,10,12-pentaen-9-yl]-N-[8-[4-(6,8-dioxo-2,7-diazaspiro[4.6]undecan-2-yl)pyrrolo[2,3-d]pyrimidin-7-yl]octyl]acetamide] | < 50 |
| Cc1sc2c(c1C)C(c1ccc(Cl)cc1)=N[C@@H](CC(=O)NCCCCCCCCOc1ccc(C#N)c(N3CCC4(CCCC(=O)NC4=O)C3)c1)c1nnc(C)n1-2 (stereo partly drawn) [Example 320, 2-[(9S)-7-(4-chlorophenyl)-4,5,13-trimethyl-3-thia-1,8,11,12-tetraazatricyclo[8.3.0.02,6]trideca-2(6),4,7,10,12-pentaen-9-yl]-N-[8-[4-cyano-3-(6,8-dioxo-2,7-diazaspiro[4.6]undecan-2-yl)phenoxy]octyl]acetamide] | < 50 |
| Cc1sc2c(c1C)C(c1ccc(Cl)cc1)=N[C@@H](CC(=O)NCCCCCOc1ccc3nc(N4CC5(CC(=O)N(C6CCC(=O)NC6=O)C5=O)C4)sc3c1)c1nnc(C)n1-2 (stereo partly drawn) [Example 321, 2-[(9S)-7-(4-chlorophenyl)-4,5,13-trimethyl-3-thia-1,8,11,12-tetraazatricyclo[8.3.0.02,6]trideca-2(6),4,7,10,12-pentaen-9-yl]-N-[5-[[2-[6-(2,6-dioxopiperidin-3-yl)-5,7-dioxo-2,6-diazaspiro[3.4]octan-2-yl]-1,3-benzothiazol-6-yl]oxy]pentyl]acetamide] | < 50 |
| Cc1sc2c(c1C)C(c1ccc(Cl)cc1)=N[C@@H](CC(=O)NCCCCCOc1ccc3nc(N4CCC5(CCCC(=O)NC5=O)C4)sc3c1)c1nnc(C)n1-2 (stereo partly drawn) [Example 322, 2-[(9S)-7-(4-chlorophenyl)-4,5,13-trimethyl-3-thia-1,8,11,12-tetraazatricyclo[8.3.0.02,6]trideca-2(6),4,7,10,12-pentaen-9-yl]-N-[5-[[2-(6,8-dioxo-2,7-diazaspiro[4.6]undecan-2-yl)-1,3-benzothiazol-6-yl]oxy]pentyl]acetamide] | < 50 |
| Cc1sc2c(c1C)C(c1ccc(Cl)cc1)=N[C@@H](CC(=O)NCCCCCCc1ccc(C(=O)N3CCC4(CCCC(=O)NC4=O)C3)cc1Cl)c1nnc(C)n1-2 (stereo partly drawn) [Example 323, N-[6-[2-chloro-4-(6,8-dioxo-2,7-diazaspiro[4.6]undecane-2-carbonyl)phenyl]hexyl]-2-[(9S)-7-(4-chlorophenyl)-4,5,13-trimethyl-3-thia-1,8,11,12-tetraazatricyclo[8.3.0.02,6]trideca-2(6),4,7,10,12-pentaen-9-yl]acetamide] | < 50 |
| Cc1sc2c(c1C)C(c1ccc(Cl)cc1)=N[C@@H](CC(=O)NCCCCCCc1cccc3c(C(=O)N4CCC5(CCCC(=O)NC5=O)C4)cccc13)c1nnc(C)n1-2 (stereo partly drawn) [Example 324, 2-[(9S)-7-(4-chlorophenyl)-4,5,13-trimethyl-3-thia-1,8,11,12-tetraazatricyclo[8.3.0.02,6]trideca-2(6),4,7,10,12-pentaen-9-yl]-N-[6-[5-(6,8-dioxo-2,7-diazaspiro[4.6]undecane-2-carbonyl)naphthalen-1-yl]hexyl]acetamide] | < 50 |
| Cc1sc2c(c1C)C(c1ccc(Cl)cc1)=N[C@@H](CC(=O)NCCCCCCn1ccc3c(C(=O)N4CCC5(CCCC(=O)NC5=O)CC4)cccc31)c1nnc(C)n1-2 [Example 326, 2-[(9S)-7-(4-chlorophenyl)-4,5,13-trimethyl-3-thia-1,8,11,12-tetraazatricyclo[8.3.0.02,6]trideca-2(6),4,7,10,12-pentaen-9-yl]-N-[6-[4-(7,9-dioxo-3,8-diazaspiro[5.6]undecane-3-carbonyl)indol-1-yl]hexyl]acetamide] | < 50 |
| Cc1sc2c(c1C)C(c1ccc(Cl)cc1)=N[C@@H](CC(=O)NCCCCCCc1ccc(C(=O)N3CCN(C4CCCC(=O)NC4=O)C(=O)C3)cc1Cl)c1nnc(C)n1-2 (stereo partly drawn) [Example 327, N-[6-[2-chloro-4-[4-(2,7-dioxoazepan-3-yl)-3-oxopiperazine-1-carbonyl]phenyl]hexyl]-2-[(9S)-7-(4-chlorophenyl)-4,5,13-trimethyl-3-thia-1,8,11,12-tetraazatricyclo[8.3.0.02,6]trideca-2(6),4,7,10,12-pentaen-9-yl]acetamide] | < 50 |
